Experiments:
Assay type in all cases: cell-based
[1] = target: T1, engineered chimeric LGIC receptor SEQ ID NO:33 (α7-nAChR ligand binding domain with GlyRα1 Cys-loop, GlyRα1 ion pore domain) (Homo sapiens, UniProt P36544, F159M/H163T/I152M/R155K/V154L/W156N/Y151P); assay: Two electrode voltage clamp currents in Xenopus oocytes expressing the receptor; details: Xenopus oocytes; FIG. 5
T1 construct: expressed in transfected cells; host or cells: Xenopus oocytes (cDNA injection)
Method: (§1) For Xenopus oocyte studies, injections of cDNAs encoding for ion channels at a final concentration of 0.04 μg/μL were performed using a proprietary automated injection device and receptor expression examined at least two days later. Oocytes were poked with two electrodes and their membrane potential maintained at −80 mV throughout the experiment. All recordings were performed at 18° C. and cells were superfused with OR2 medium containing in mM: NaCl 82.5, KCl 2.5, HEPES 5, CaCl2.2H2O 1.8, MgCl2.6H2O 1, pH 7.4. Recordings progressed if oocytes had sufficiently low holding current, in which case they were then subjected to ligand or test compound application (5-10 s wash intervals), with 100 s of wash in between doses. Currents evoked by acetylcholine or other agonists were recorded using an automated process equipped with standard two electrode voltage clamp configuration (TEVC). Data were captured and analyzed using HiQScreen proprietary data acquisition and analysis software running under Matlab (Mathworks Inc.). Acetylcholine was prepared as a concentrated stock solution (10-1 M) in water and then diluted in the recording medium to obtain the desired test concentration. Nicotine was diluted in water as stock solution (10-1 M), kept frozen and diluted immediately prior to the experiment at the desired concentration. Compounds were prepared as stock solution (10-1M) in OR2 and then diluted in the recording medium to obtain the desired test concentration. Stock solution for Compound-1 was made in OR2 at pH 5 adjusted with HCl. To assess that dilution at the final concentration of this stock solution introduced no significant changes, the pH of the final solution was confirmed using a colorimetric assay (Galietta L. J. V., et al. 2001. FEBS Letters 499: 220-224. Kruger W., et al. (2005). Neuroscience Letters 380: 340-345.)
(§2) To better understand the impact of the heterologous domains that had been inserted into the channels, the ligand-dependent response profiles of wild type α7-nAChR and various engineered chimeric LGIC receptors to acetylcholine as well as to non-native ligands TC-6987, AZD-0328, and Facinicline/RG3487 were assessed. Receptors were transiently expressed in […] cells and currents were measured on an automated patch clamp system (Fluxion Biosciences) following 1 second addition of drug. Inclusion of a GlyRα1 Cys-loop sequence in the extracellular domain increased the potency of all small molecules on the engineered receptor (leftward shift in EC50) (e.g. SEQ ID NO:35, FIG. 4C vs SEQ ID NO:16, FIG. 4B). […] Inclusion of both the Cys-loop and β1-β2 loop sequences of GlyRα1 in the extracellular domain reduced the sensitivity by about 1 log from that observed with the full Cys-loop sequence alone, but further increased conductance approximately 2-fold and slowed the rate of deactivation of the channel (SEQ ID NO:41, FIG. 4E vs. SEQ ID NO:33, FIG. 4D).

[2] = target: T2, engineered chimeric LGIC receptor SEQ ID NO:41 (as SEQ ID NO:33, further comprising the β1-β2 loop domain from GlyRα1) (Homo sapiens, UniProt P36544, F159M/H163T/I152M/K68T/N69T/Q70M/R155K/V154L/W156N/Y151P); assay: as above; details: FIG. 5
T2 construct: expressed in transfected cells; host or cells: Xenopus oocytes (cDNA injection)
T2 sequence (P36544 with tags, fused parts or gaps K68T/N69T/Q70M/Y151P/I152M/V154L/R155K/W156N/F159M/H163T): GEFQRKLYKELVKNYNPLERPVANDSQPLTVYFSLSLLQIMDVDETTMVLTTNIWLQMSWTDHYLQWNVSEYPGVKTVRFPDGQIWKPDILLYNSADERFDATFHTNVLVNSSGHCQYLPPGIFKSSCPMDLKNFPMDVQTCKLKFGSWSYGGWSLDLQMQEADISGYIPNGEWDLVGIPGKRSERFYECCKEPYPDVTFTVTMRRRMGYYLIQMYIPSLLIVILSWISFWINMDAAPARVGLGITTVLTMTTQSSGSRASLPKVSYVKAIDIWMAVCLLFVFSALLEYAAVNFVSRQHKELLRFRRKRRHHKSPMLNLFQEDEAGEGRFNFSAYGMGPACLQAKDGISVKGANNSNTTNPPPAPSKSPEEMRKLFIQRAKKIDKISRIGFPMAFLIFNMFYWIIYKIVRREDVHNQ
Method: as §1, §2

[3] = target: T3, SEQ ID NO:33 with substitution W77M (Homo sapiens, UniProt P36544, F159M/H163T/I152M/R155K/V154L/W156N/W77M/Y151P); assay: Plate reader YFP quench (anion reporter) assay, dose response curves; details: FIG. 9B
T3 construct: expressed in transfected cells; host or cells: Lenti-X 293T (HEK293T) cells, pcDNA3.1(+) plasmid
T3 sequence (P36544 with tags, fused parts or gaps W77M/Y151P/I152M/V154L/R155K/W156N/F159M/H163T): as the sequence (P36544 with tags, fused parts or gaps K68T/N69T/Q70M/Y151P/I152M/V154L/R155K/W156N/F159M/H163T) above, with T46K, T47N, M48Q, W55M counted along it
Method: (§3) Lenti-X 293T cells (LX293T, Clontech) were maintained in DMEM containing 10% FBS and 1% penicillin/streptomycin (Invitrogen). […] The next day, the cells were transiently transfected with 0.1 μg of DNA per well using standard Fugene protocol (Promega). On the day of assay, cells were washed 2 times in 1× extracellular solution (1×ECS: 140 mM NaCl, 5 mM KCl, 1 mM MgCl2, 2 mM CaCl2, 10 mM HEPES, 10 mM glucose, pH 7.2, mOsms 300). After the last wash, 100 μL of 1×ECS was added to the wells and the plate was incubated at 37° C. for 30 min. While incubating the plate, the drugs were diluted to a 2× concentration in 1×ECS-NaI (same components as 1×ECS except the 140 mM NaCl was replaced by 140 mM NaI). The plates were then read on a Flexstation3 (Molecular Devices). Each well, 8 wells at a time, of the plate is read for 2 min using a Flexstation3 (Molecular Devices) as follows: 1) a baseline YFP fluorescence is read for 17 sec, 2) 100 μL of ligand is added, and 3) the changes in YFP fluorescence are then measured every 1.3 sec for the remaining time.
(§4) To further tune the responsiveness of the engineered LGIC receptors to native and non-native ligands, the binding pocket of each ligand in the alpha7-nAChR was modeled and the amino acid residues that form the binding pocket were mapped. […]

[4] = target: T4, engineered chimeric LGIC receptor SEQ ID NO:41 (Homo sapiens, UniProt P36544, F159M/H163T/I152M/K68T/N69T/Q70M/R155K/V154L/W156N/Y151P); assay: Plate reader YFP quench plots; details: FIG. 7
T4 construct: expressed in transfected cells; host or cells: Lenti-X 293T cells stably expressing YFP (H148Q/I152L) reporter; pcDNA3.1(+) plasmid
T4 sequence (P36544 with tags, fused parts or gaps K68T/N69T/Q70M/Y151P/I152M/V154L/R155K/W156N/F159M/H163T): as the sequence (P36544 with tags, fused parts or gaps K68T/N69T/Q70M/Y151P/I152M/V154L/R155K/W156N/F159M/H163T) above
Method: as §3, §4

T1 sequence (P36544 with tags, fused parts or gaps Y151P/I152M/V154L/R155K/W156N/F159M/H163T): as the sequence (P36544 with tags, fused parts or gaps K68T/N69T/Q70M/Y151P/I152M/V154L/R155K/W156N/F159M/H163T) above, with T46K, T47N, M48Q counted along it

SMILES: c1cnc2c(c1)C[C@@]1(CN3CCC1CC3)O2 [AZD-0328]
- fold more sensitive than wild type α7-nAChR [1]: approximately 3 fold
- sensitivity of SEQ ID NO:41 to ligand compared with wild type α7-nAChR [2]: comparably sensitive
- increase in EC50 (rightward shift) compared to unmutated SEQ ID NO:33 [3]: > 2 log
- response of Chimera #41 compared with Chimera #33 [4]: responds to lower doses

From patent US10538571B2, “Compositions and methods for neurological diseases” (Coda Biotherapeutics, Inc., priority 2017, dated 2020)
